Results from patent US8901129B2, “Methods of facilitating neural cell survival using GDNF family ligand (GFL) mimetics or RET signaling pathway activators” (GeneCode AS, priority 2009, dated 2014).

Assays:
[1] = system: GFRα1/RET-expressing cells; assay: Reporter-gene luciferase activity assay, dose-response (FIG. 5); format: cell-based; settings: 1-50 μM, 24 h
Description: Generation of stable cell lines. MG87RET murine fibroblast were plated on […] dishes and transfected with 4 μg of G4-Luc, Gal4-Elk (Baloh et al., 2000) and GFRα1 expressing plasmid (“αLUC” cells) or empty vector (“NOα” cells) containing neomycin-resistance gene in ratio 4:1:1 using Lipofectamine 2000 (Invitrogen) for DNA delivery as described by manufacturer. The following day, cells were trypsinized and plated in low density on 10-cm tissue culture dishes. Stable transformants were selected in the presence of 500-750 μg/ml geneticin (Invitrogen). Established cell lines were maintained in DMEM, 10% fetal bovine serum (FBS), 100 μg/ml Normocin (Invivogene), 2 μg/ml of puromycin, 500 μg/ml of geneticin, 15 mM HEPES, pH 7.2. Pathdetect Elk-1 system and human GFRα1-expressing plasmid (“Strat-Luc” cells) or empty vector (control cell line “NOStratis”) cells were selected and maintained in the DMEM, 10% FBS, 100 μg/ml Normocin (Invivogene), 2 μg/ml of puromycin, 500 μg/ml of G418, 2 μg/ml of blasticidin S, 15 mM HEPES, pH 7.2.
Cells were plated on 96-well plates (or 384-well) in cell density 20 000 (or 5 000 for 384-well format) cells per well in DMEM, 10% FBS, 100 μg/ml Normocin, 2 μg/ml puromycin, 500 μg/ml of G418, 15 mM HEPES, pH 7.2 one day before assay. The following day, the compounds were added to a final concentration of 1-50 μM. Structures of the compounds are shown in the description of FIG. 5, above. Cells were allowed to produce luciferase for 24 h, then lysed in 20 μl of 1×Cell culture lysis reagent (Promega) and freeze-thawed once to ensure complete lysis. Then 5 μl of the lysate was mixed (on ice) with 20 μl of luciferase assay substrate (Promega) in a well of black Isoplate (PerkinElmer). Luminescence was counted on MicroBeta 2 counter (PerkinElmer) twice. Data are presented as fold induction, where the corresponding concentration of DMSO was used as a reference.

6-OHDA lesioned rats = assay: Amphetamine induced rotation asymmetry in 6-OHDA rat model of Parkinson's disease (FIG. 7); format: in vivo; settings: for amphetamine-induced ipsilateral rotation: 3 weeks after 6-OHDA, measured 6 weeks after 6-OHDA; for amphetamine-induced ipsilateral rotation of lesioned rats: injected into striatum 3 weeks after 6-OHDA, dose not stated
Text: The objective of this study is to investigate the effect of intrastriatally (i.s.) administered small molecule GDNF mimetics (compounds 13, 16, 319H6 and 292651, structures shown in the description of the Figures, above) in a rat model 6-OHDA of Parkinson's disease. In the sub-acute lesion model used in this study, the lesion of the substantia nigra (SNc) that slowly progresses over weeks is created by injection of 6-OHDA into the proximity of the dopaminergic terminals in the striatum (Kirik-D 1998, Exp. Neurol. 152:259-277). In this model, a portion of the nigrostriatal projection is left intact, which can serve as a substrate for regeneration and functional recovery in response to growth promoting and neuroprotective agents.
GDNF mimetics compounds, GDNF or vehicle is administered to the striatum at 3 weeks after the exposure to the neurotoxin 6-OHDA. The selective damage to dopaminergic neurons in the SNc, as well as striatal levels of dopamine and its metabolites are evaluated 12 weeks after the injection of 6-OHDA with tyrosine hydroxylase (TH) immunohistochemistry and HPLC, respectively. In addition, the behavioral impairment of rats is evaluated by forelimb asymmetry test (cylinder test), amphetamine induced rotation asymmetry test and Y-maze test for stereotypic spontaneous rotation deficits.
Animals: All animal experiments are carried out according to the National Institute of Health (NIH) guidelines for the care and use of laboratory animals, and approved by the State Provincial Office of Southern Finland. Altogether 108 male Wistar rats, purchased from Charles River, Germany and weighing 220-275 g are used for the experiment. Animals are housed at a standard temperature (22±1° C.) and in a light-controlled environment (lights on from 7 am to 8 pm) with ad libitum access to food and water. Animals are grouped as follows:
In order to generate partial retrograde degeneration into the SNc, 6-OHDA lesioning is carried out according to Sauer and Oertel with modifications (Sauer and Oertel, 1994). Male Wistar rats are anesthetized with 5% isoflurane (in 70% N2O and 30% O2; flow 300 ml/min) and placed in a stereotactic frame. During the operation concentration of anesthetic is reduced to 1-1.5%. The rectal temperature is maintained at 37.0±1.0° C. with a homeothermic blanket system. The right brain hemisphere is exposed through a small craniectomy to the skull. The dura mater is carefully removed with fine forceps and a stereotaxic injection of 6-OHDA (4 μg/μl) is made into the right striatum. A total of 7 μl of 6-OHDA is infused at a speed of 0.5 μl/min and is equally distributed between 4 sites at the following coordinates: AP+1.0, ML+2.8, DV−6.0, −5.5, −5.0 and −4.4 mm. The cannula is left in place for another 5 min before being withdrawn. The hole in the skull is subsequently filled with repair material and the skin is closed and disinfected. The rats are allowed to recover from anesthesia and are carefully monitored for possible post surgical complications. The animals are returned to the home cages with ad libitum access to food and water.
On day 21, rats are re-anesthetized with 5% isoflurane (in 70% N2O and 30% O2; flow 300 ml/min) and placed in a stereotactic frame. During the operation concentration of anesthetic is reduced to 1-1.5%. The rectal temperature is maintained at 37.0±1.0° C. with a homeothermic blanket system. The right brain hemisphere is exposed through a small craniectomy to the skull. A stereotaxic injection of the test compound, GDNF or vehicle is made into the right striatum. Each dosing solution is infused at a speed of 1 μl/min and is equally distributed between 4 sites at the following coordinates: AP+1.0, ML+2.8, DV−6.0, −5.5, −5.0 and −4.4 mm. The cannula is left in place for another 5 min before being withdrawn. The hole in the skull is subsequently filled with repair material and the skin is closed and disinfected. […]

| SMILES | induction of luciferase expression [1] | amphetamine-induced ipsilateral rotation (6-OHDA lesioned rats; 1 ug intrastriatal) | amphetamine-induced ipsilateral rotation of lesioned rats (6-OHDA lesioned rats) | amphetamine-induced ipsilateral rotation (6-OHDA lesioned rats; intrastriatal (Group 5: 0.5 ug per rat)) | amphetamine-induced ipsilateral rotation (6-OHDA lesioned rats; 0.2 ug intrastriatal) |
| --- | --- | --- | --- | --- | --- |
| COc1cc2c(cc1OC)CN(S(=O)(=O)c1ccc(OC)c(N3CCN(C(=O)c4cc(F)ccc4C(F)(F)F)CC3)c1)CC2 [BT18] | active | reduced amphetamine-induced ipsilateral rotation | significantly reduce | – | – |
| COc1ccc(S(=O)(=O)N2CCc3ccccc3C2)cc1N1CCN(C(=O)c2cc(F)ccc2C(F)(F)F)CC1 [BT16] | in a dose-dependent manner induce luciferase expression | – | significantly reduce | reduced amphetamine-induced ipsilateral rotation | – |
| CCN(CC)S(=O)(=O)c1ccc(OC)c(N2CCN(C(=O)c3cc(F)ccc3C(F)(F)F)CC2)c1 [BT13] | in a dose-dependent manner induce luciferase expression | – | significantly reduce | – | reduced amphetamine-induced ipsilateral rotation |
